Read-outs that look alike come from different tables or passages of the source.
How the values were obtained:
[1] = target: KRAS G12D (Homo sapiens (Human), UniProt P01116, G12D); assay: KRAS G12D LoEnz Biochemical Assay, BODIPY-GDP Exchange TR-FRET (SOS1-mediated nucleotide exchange); conditions: read-out: KRas (G12D) GDP HTRF IC50
[2] = target: T1, KRAS WT (Homo sapiens (Human), UniProt P01116); assay: KRAS WT Biochemical Assay, BODIPY-GDP Exchange TR-FRET (Example 502; 0.06 nM KRAS WT, 15 nM GDP, 300 nM SOS1, 120-minute incubation); conditions: read-out: KRas HTRF IC50
T1 sequence (P01116-2 other isoform, or with tags, fused parts or gaps): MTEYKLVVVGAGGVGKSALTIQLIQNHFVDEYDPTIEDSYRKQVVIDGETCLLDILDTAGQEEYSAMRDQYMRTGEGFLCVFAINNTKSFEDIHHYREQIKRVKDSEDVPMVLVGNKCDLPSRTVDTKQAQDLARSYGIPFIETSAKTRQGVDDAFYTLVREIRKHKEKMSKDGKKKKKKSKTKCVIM
In short: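 Biotin-tagged recombinant KRAS WT (0.06 nM) preloaded with 15 nM GDP and Tb-streptavidin, 10 min RT, then exchange started with 300 nM SOS1 plus 300 nM BODIPY-GDP in HEPES pH 7.5 buffer with MgCl2. TR-FRET 520/490 ratio read after 120 min; normalized to DMSO and full-inhibition control; IC50 from 4-parameter fit.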

[3] = system: HPAC (homozygous mutant KRAS G12D human pancreatic cell line); assay: KRAS 3D-Cell Proliferation Assay, HPAC (CellTiter-Glo 3D, 7 days); assay type: cell-based; conditions: HPAC 3D culture, read-out: Prolif HPAC 3D ATP IC50
Experimental: (§1) Example 503: KRAS 3D-Cell Proliferation Assays. Cellular potencies of compounds are assessed by evaluating inhibition of proliferation in 3D cultures of homozygous mutant KRAS G12D human pancreatic cell lines (AsPC-1 and HPAC) as compared to a KRAS wild type human lung adenocarcinoma cell line (PC-9 and/or H1975). Cells are seeded into 384-well black round-bottom, ultra-low attachment assay plates in 50 uL cell growth medium (RPMI-1640 with 10% fetal bovine serum and 2 mM L-glutamine). After overnight incubation at 37° C. and 5% CO2, compounds solubilized in DMSO are added as dilution series to the wells in a total volume of 150 nL (0.3% DMSO final). The cells are incubated for 7 days at 37° C. and 5% CO2. Cell proliferation is quantitated by addition of 40 uL/well of CellTiter-GloO 3D (Promega), and the well contents are mixed 20× at high speed using liquid handling automation workstation (Bravo with 384-well head) and centrifuged at 1500 rpm for 2 minutes to eliminate bubbles. This reagent in combination with mechanical disruption releases the cellular ATP to promote activity in a luciferase-based enzyme/substrate chemiluminescent detection system. After a 30-minute incubation under ambient conditions with shaking and an additional 10 minutes without shaking, the luminescence is read on a plate reader (e.g. EnVision [PerkinElmer]). The results are normalized to percent inhibition based on the following control samples: DMSO (0% inhibition) and 1 uM staurosporine (100% inhibition). The normalized luminescence results are plotted against compound concentration, and the data are fit to a 4-parameter Hill equation to determine the IC50 values.

[4] = system: H1975 (KRAS wild type human lung adenocarcinoma cell line); assay: KRAS 3D-Cell Proliferation Assay, H1975 (CellTiter-Glo 3D, 7 days); assay type: cell-based; conditions: H1975 3D culture, read-out: Prolif H1975 3D ATP IC50
Experimental: as §1

[5] = target: T1, KRAS WT; assay: KRAS WT Biochemical Assay, BODIPY-GDP Exchange TR-FRET (Example 501; 3 nM KRAS WT, 3 nM SOS1, 60-minute incubation); conditions: read-out: KRas HTRF IC50
In short: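 SOS1-mediated exchange assay: 3 nM biotin-KRAS WT with terbium-streptavidin, started with 3 nM SOS1 and 300 nM BODIPY-GDP, HEPES pH 7.5 with MgCl2. TR-FRET (520/490 nm) read after 60 min; normalized to DMSO and full-inhibition control, IC50 from 4-parameter Hill fit.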

KRAS G12D, sequence (P01116-2 other isoform, or with tags, fused parts or gaps G12D): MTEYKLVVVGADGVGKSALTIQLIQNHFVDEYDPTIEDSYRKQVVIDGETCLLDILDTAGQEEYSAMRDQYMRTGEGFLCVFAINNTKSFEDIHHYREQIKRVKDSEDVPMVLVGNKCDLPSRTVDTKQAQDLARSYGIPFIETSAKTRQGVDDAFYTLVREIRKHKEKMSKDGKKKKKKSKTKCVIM

| SMILES | IC50 [1] [nM] | IC50 [2] [nM] | IC50 ([3]; Homo sapiens, HPAC, 168 h) [nM] | IC50 ([4]; Homo sapiens, NCI-H1975, 168 h) [nM] | IC50 [3] [nM] | IC50 [4] [nM] | IC50 [5] [nM] |
| --- | --- | --- | --- | --- | --- | --- | --- |
| Cc1c(F)c(N)cc(-c2nc3c4c(nc(OC[C@@H]5COC[C@H]6CCCN65)nc4c2F)N2C[C@H]4CC[C@H](N4)[C@H]2[C@H](C)O3)c1C(F)(F)F (single isomer, unassigned) [121 (isomer 2)] | 0.27 | 49.3 | 17.5 | 533 |  |  |  |
| Cc1c(F)c(N)cc(-c2nc3c4c(nc(OC[C@@]56CCC[C@@H]5N(C)CCC6)nc4c2F)N2C[C@H]4CC[C@H](N4)[C@H]2[C@H](C)O3)c1C(F)(F)F (single isomer, unassigned) [126 (isomer 2)] | 0.09 | 8.08 | 5.15 | 1770 |  |  |  |
| Cc1c(F)c(N)cc(-c2nc3c4c(nc(OC[C@@]56CCC[C@H]5N(C)CCC6)nc4c2F)N2C[C@H]4CC[C@H](N4)[C@H]2[C@H](C)O3)c1C(F)(F)F (single isomer, unassigned) [126 (isomer 3)] | 0.09 | 6.31 | 3.28 | 1430 |  |  |  |
| Cc1c(F)c(N)cc(-c2nc3c4c(nc(OC[C@]56CCC[C@H]5N(C)CCC6)nc4c2F)N2C[C@H]4CC[C@H](N4)[C@H]2[C@H](C)O3)c1C(F)(F)F (single isomer, unassigned) [126 (isomer 4)] | 0.37 | 90.3 | 24.9 | 2250 |  |  |  |
| Cc1c(F)c(N)cc(-c2nc3c4c(nc(OC[C@@]56CCCN5[C@@H](C(F)F)CC6)nc4c2F)N2C[C@H]4CC[C@H](N4)[C@H]2[C@H](C)O3)c1C(F)(F)F (single isomer, unassigned) [130 (isomer 1)] | 2.26 | 460 |  | 2830 | 44.7 |  |  |
| Cc1c(F)c(N)cc(-c2nc3c4c(nc(OC[C@@]56CCCN5[C@@H](C(F)F)CC6)nc4c2F)N2C[C@H]4CC[C@H](N4)[C@H]2[C@H](C)O3)c1C(F)(F)F (single isomer, unassigned) [130 (isomer 2)] | 0.92 | 174 |  |  | 15.8 | 2900 |  |
| Cc1c(F)c(N)cc(-c2nc3c4c(nc(OC[C@H]5CC[C@@H]6CN(C)C(=O)CN56)nc4c2F)N2C[C@H]4CC[C@H](N4)[C@H]2[C@H](C)O3)c1C(F)(F)F (single isomer, unassigned) [131 (isomer 1)] | 13.9 | 2530 |  |  | 1430 | 20000 |  |
| Cc1c(F)c(N)cc(-c2nc3c4c(nc(OC[C@H]5CC[C@@H]6CN(C)C(=O)CN56)nc4c2F)N2C[C@H]4CC[C@H](N4)[C@H]2[C@H](C)O3)c1C(F)(F)F (single isomer, unassigned) [131 (isomer 2)] | 1.31 | 293 |  |  | 342 | 20000 |  |
| Cc1c(F)c(N)cc(-c2nc3c4c(nc(OC[C@H]5CC[C@@H]6CN(C)C(=O)CN56)nc4c2F)N2C[C@H]4CC[C@H](N4)[C@H]2[C@H](C)O3)c1C(F)(F)F (single isomer, unassigned) [131 (isomer 3)] | 2.07 | 249 |  |  | 77.4 | 8850 |  |
| Cc1c(F)c(N)cc(-c2nc3c4c(nc(OC[C@@H]5CCC6C[C@@H](C(=O)N(C)C)CCN65)nc4c2F)N2C[C@H]4CC[C@H](N4)[C@H]2[C@H](C)O3)c1C(F)(F)F (single isomer, unassigned) [133 (isomer 2)] | 0.15 | 14.4 | 22.4 | 1600 |  |  |  |
| Cc1c(F)c(N)cc(-c2nc3c4c(nc(OCC56CCCN5CCN(C)C6=O)nc4c2F)N2C[C@H]4CC[C@H](N4)[C@H]2[C@H](C)O3)c1C(F)(F)F (single isomer, unassigned) [137 (isomer 2)] | 2.34 | 454 | 193 | 20000 |  |  |  |
| Cc1c(F)c(N)cc(-c2nc3c4c(nc(OC[C@@]56CCCN5C[C@H](F)C6)nc4c2F)N2CCN[C@@H](C)[C@H]2[C@H](C)O3)c1C(F)(F)F (single isomer, unassigned) [234 (isomer 1)] | 1330 |  | 2000 | 8570 |  |  | 23300 |
| Cc1c(F)c(N)cc(-c2nc3c4c(nc(OC[C@@]56CCCN5C[C@H](F)C6)nc4c2F)N2CCN[C@@H](C)[C@H]2[C@@H](C)O3)c1C(F)(F)F (single isomer, unassigned) [234 (isomer 2)] | 209 |  | 2000 | 9750 |  |  | 513 |
| Cc1c(F)c(N)cc(-c2nc3c4c(nc(OC[C@@]56CCCN5C[C@H](F)C6)nc4c2F)N2CCN[C@H](C)[C@@H]2[C@H](C)O3)c1C(F)(F)F (single isomer, unassigned) [234 (isomer 3)] | 4810 |  | 2000 | 16600 |  |  | 4570 |
| Cc1c(F)c(N)cc(-c2nc3c4c(nc(OC[C@@]56CCCN5C[C@H](F)C6)nc4c2F)N2CCN[C@H](C)[C@@H]2[C@@H](C)O3)c1C(F)(F)F (single isomer, unassigned) [234 (isomer 4)] | 589 |  | 2000 | 8500 |  |  | 510 |
| Cc1c(F)c(N)cc(-c2nc3c4c(nc(OC[C@@]56CCCN5C[C@H](F)C6)nc4c2F)N2C[C@H]4CC[C@H](N4)[C@H]2[C@@H](C(F)F)O3)c1C(F)(F)F (single isomer, unassigned) [238 (isomer 2)] | 13000 |  | 2000 | 20000 |  |  | 4800 |
| Cc1nc(N)cc(-c2nc3c4c(nc(OC[C@H]5N(C)C[C@]56CC6(F)F)nc4c2F)N2C[C@H]4CC[C@H](N4)[C@H]2[C@H](C(F)(F)F)O3)c1C(F)(F)F (single isomer, unassigned) [262 (isomer 1)] | 31.9 |  | 475 | 20000 |  |  | 668 |
| Cc1nc(N)cc(-c2nc3c4c(nc(OCC5N(C)C[C@]56CC6(F)F)nc4c2F)N2C[C@H]4CC[C@H](N4)[C@H]2[C@H](C(F)(F)F)O3)c1C(F)(F)F (single isomer, unassigned) [262 (isomer 3)] | 41.1 |  | 971 | 20000 |  |  | 1080 |
| Cc1nc(N)cc(-c2nc3c4c(nc(OCC5N(C)CC56CC6(F)F)nc4c2F)N2C[C@H]4CC[C@H](N4)[C@H]2[C@H](C(F)(F)F)O3)c1C(F)(F)F (single isomer, unassigned) [262 (isomer 4)] | 1.14 |  | 43.4 | 4380 |  |  | 35.1 |
| Cc1c(F)c(N)cc(-c2nc3c4c(nc(OC[C@@]56CCN5CC(F)(F)C6)nc4c2F)N2C[C@H]4CC[C@H](N4)[C@H]2[C@H](C(F)(F)F)O3)c1C(F)(F)F (single isomer, unassigned) [263 (diast. 1)] | 0.26 |  | 6.14 | 789 |  |  | 5.49 |
| Cc1c(F)c(N)cc(-c2nc3c4c(nc(OCC56CCN5CC(F)(F)C6)nc4c2F)N2C[C@H]4CC[C@H](N4)[C@H]2[C@H](C(F)(F)F)O3)c1C(F)(F)F (single isomer, unassigned) [263 (diast. 2)] | 0.53 |  | 15.4 | 336 |  |  | 15.4 |
| Cc1cc(N)c(F)c(-c2nc3c4c(ncnc4c2Cl)N2C[C@H]4CC[C@H](N4)[C@H]2[C@H](C)O3)c1C(F)(F)F (single isomer, unassigned) [Compound 95] |  | 3570 |  |  | 247 | 6700 |  |
| Cc1cc(N)c(Cl)c(-c2nc3c4c(nc(OC[C@@]56CCCN5C[C@H](F)C6)nc4c2Cl)N2C[C@H]4CC[C@H](N4)[C@H]2[C@H](C)O3)c1C(F)(F)F (single isomer, unassigned) [Compound 240 (atrop. 1)] | 44.9 |  |  |  | 594 | 6480 | 1080 |
| Cc1cc(N)c(Cl)c(-c2nc3c4c(nc(OC[C@@]56CCCN5C[C@H](F)C6)nc4c2Cl)N2C[C@H]4CC[C@H](N4)[C@H]2[C@H](C)O3)c1C(F)(F)F (single isomer, unassigned) [Compound 240 (atrop. 2)] | 0.14 |  |  |  | 1.88 | 1060 | 15.1 |
